Results reported in patent US8680114B2, “AKT protein kinase inhibitors” (Array Biopharma, Inc., priority 2003, dated 2014).

Target: full-length human recombinant active AKT-1 (Homo sapiens, UniProt P31749)
Assay: AKT-1 kinase assay (IMAP fluorescence polarization, phosphorylation of fluorescently-labeled peptide)
Format: biochemical
Settings: AKT-1 IMAP assay, qualitative statement, values not given
Source text: The activity of the compounds described in the present invention may be determined by the following procedure: This procedure describes a kinase assay that measures the phosphorylation of a fluorescently-labeled peptide by full-length human recombinant active AKT-1 by fluorescent polarization using a commercially available IMAP kit.
The assay materials come from an IMAP AKT Assay Bulk Kit, product #R8059, from Molecular Devices, Sunnyvale, Calif. The kit materials include an IMAP Reaction Buffer (5×): The diluted 1×IMAP Reaction Buffer contains 10 mM Tris-HCl, pH 7.2, 10 mM MgCl2, 0.1% BSA, 0.05% NaN3. DTT is routinely added to a final concentration of 1 mM immediately prior to use.
Also included are IMAP Binding Buffer (5×), and IMAP Binding Reagent. The Binding Solution is prepared as a 1:400 dilution of IMAP Binding Reagent into 1×IMAP Binding Buffer.
Fluorescein-labeled AKT Substrate (Crosstide), having the sequence (F1)-GRPRTSSFAEG. A stock solution of 20 μM is made up in 1×IMAP Reaction Buffer.
The plates used include a Costar 3657 ([…] made of polypropylene and having a white, v-bottom) that is used for compound dilution and for preparing the compound-ATP mixture. The assay plate was the Packard ProxyPlate™-384 F.
The AKT-1 used was made from full-length, human recombinant AKT-1 that is activated with PDK1 and MAP kinase 2.
The assay procedure starts the preparation of stock solutions of compounds at 10 mM in DMSO. The stock solutions and the control compound are serially diluted 1:2 nine times into DMSO (10 μL of compound+10 μL of DMSO) to give 50× dilution series over the desired dosing range. […]
The assay is initiated by the addition of 2.5-μL aliquots of a solution containing 200 nM of fluorescently-labeled peptide substrate and 4 nM AKT-1. […] The reaction is then quenched by the addition of 15 μL of Binding Solution, centrifuged again and incubated for an additional 30 minutes at ambient temperature prior to reading on a Victor 1420 Multilabel HTS Counter configured to measure fluorescence polarization.

Chain of full-length human recombinant active AKT-1 (P31749 whole entry): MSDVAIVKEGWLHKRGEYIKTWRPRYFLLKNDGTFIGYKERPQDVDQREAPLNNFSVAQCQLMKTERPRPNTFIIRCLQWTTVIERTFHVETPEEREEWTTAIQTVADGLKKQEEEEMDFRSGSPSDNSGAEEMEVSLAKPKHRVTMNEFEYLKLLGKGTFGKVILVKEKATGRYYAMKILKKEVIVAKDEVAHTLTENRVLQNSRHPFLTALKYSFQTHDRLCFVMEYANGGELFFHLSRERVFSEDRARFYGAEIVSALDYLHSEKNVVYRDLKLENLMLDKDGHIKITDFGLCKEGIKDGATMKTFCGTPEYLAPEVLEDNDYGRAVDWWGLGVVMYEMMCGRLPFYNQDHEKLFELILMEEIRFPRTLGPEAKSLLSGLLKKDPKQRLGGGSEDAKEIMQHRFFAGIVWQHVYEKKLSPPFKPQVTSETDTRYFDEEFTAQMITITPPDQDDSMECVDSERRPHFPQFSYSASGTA

| SMILES | activity for inhibiting AKT protein kinases |
| --- | --- |
| N[C@H](Cc1ccc(Cl)cc1)C(=O)N1CCN(c2ncnc3ccccc23)CC1 [Example 9, (2R)-2-Amino-3-(4-chlorophenyl)-1-(4-quinazolin-4-yl-piperazin-1-yl)-propan-1-one] | showed activity |
| N[C@H](Cc1ccc2ccccc2c1)C(=O)N1CCN(c2ncnc3ccccc23)CC1 [Example 11, (2R)-2-Amino-3-(2-naphthyl)-1-(4-quinazolin-4-yl-piperazin-1-yl)-propan-1-one] | showed activity |
| N[C@H](Cc1ccc(Cl)cc1)C(=O)N1CCN(c2ccnc3ccsc23)CC1 [Example 24, (2R)-2-amino-3-(4-chlorophenyl)-1-(4-thieno[3,2,b]pyridin-7-yl-piperazin-1-yl)-propan-1-one dihydochloride] | showed activity |
